What was measured:
[1] = tested on: DU145 human prostate xenografts; experiment: Microvessel density in xenograft tumors (immunohistochemistry); type: in vivo, athymic nude mice; conditions: end of the DU145 xenograft experiment; FIG. 9
Experimental: At the end of the experiment described in EXAMPLE 69 above, tumors in each group were removed and sliced. Blood vessel density of the tumor tissues was measured by immunohistochemistry. […] These in vivo results confirmed that the compounds described in this application inhibit angiogenesis.

[2] = tested on: DU145 human prostate xenografts; experiment: In vivo efficacy in DU145 xenograft tumor model; design: species or system athymic nude mice; conditions: daily IP 40 mg/kg for 4 weeks; FIG. 8
Experimental: Athymic nude mice at 7-8 weeks of age were used for the study. Mice were housed in microisolator housing, with food and water provided as libitum, and quarantined for 4 days prior to the initiation of the study. DU145 cells were maintained in McCoy's 5A medium supplemented with 10% fetal bovine serum and 2 mM glutamine. Cells at 80% confluence were harvested using 0.25% trypsin/EDTA solution, washed once with PBS and resuspended in a mixture of serum-free medium/Matrigel (1:1 by volume) at a density of 3×10^6 cells/100 μl. 4 groups of 10 mice each were used in the experiment. DU145 cells suspended in 100 μl of a mixture of medium/Matrigel (1:1) were subcutaneously implanted in the right flank region. Animals were monitored for tumor growth daily after cell implantation. When tumor volumes reached 80-100 mm^3, mice were randomized into 4 groups of 10 mice each using only mice having tumor volumes closest to the mean value. Tumor volumes were measured using the formula V=L×W×H×π/6, where L and W represent the longer and shorter diameters of the tumor and H represents the height of the tumor. Treatment began the day after randomization. Act-MIF-001, ACT-MIF-002, and ACT-MIF-003 were administered daily by IP injection at a dose of 40 mg/kg for 4 weeks. Throughout the entire study, tumor volumes were measured twice weekly and body weights once weekly.

Which results are given for `Fc1ccccc1-c1cc(I)ncn1` [ACT-MIF-003, 4-Iodo-6-(2-fluorophenyl)pyrimidine]?
Microvessel density of tumor tissues [1]: decrease in microvessel density with respect to the tumors of the control group with a statistically meaningful difference; Tumor growth inhibition [2]: significantly inhibited tumor growth
